Data as given in US8609417B2, “Methods and compositions for stem cell cultures” (The Regents of the University of California, priority 2009, dated 2013).

Legend:
hiPS cells [1] = experiment: Cell viability under suspension culture; type: cell-based, human; conditions: 2 days
Experimental: For the evaluation of cell viability under suspension culture, hES or hiPS cells were plated at 5×10^5 in non-tissue culture-treated 6-well plates with non-conditioned standard hESm containing blebbistatin or Y-27632 at different concentrations in triplicates. After 2 days, cells were harvested with trypsinization and extensive trituration by pipetting, and the number of live cells was manually counted by using hemocytometer and trypan blue staining. The cell survival ratio (%) represents the ratio of the number of live cells to the number of cells plated. The same samples were subjected to TUNEL assay for side by side comparison with the data from cell viability assay.

hiPS cells [2] = experiment: Defined culture on PDL coating in mTeSR (self-renewal over passages); type: cell-based, human
Experimental: Cell culture. Two independent hES cell lines, H9 (WiCell) and BGN01 (BresaGen), were examined. hiPS cells used in the study include iPS (Foreskin) Clone 1 (WiCell) and two independently derived hiPS cells from normal human dermal fibroblasts (NHDF) which have been characterized by a series of molecular and functional assays. For the regular feeder-free culture, hES or hiPS cells were grown on Matrigel (BD Biosciences)-coated plates in a defined medium, mTeSR (StemCell Technologies). Cells were regularly passaged by the standard method using dispase (Invitrogen) or trypsin-EDTA (Lonza). General stem cell culture techniques are described in Freshney et al., Culture of Human Stem Cells (Culture of Specialized Cells), John Wiley & Sons, 1992 (the disclosure of which is incorporated herein by reference for all purposes). mES cells used in the experiment include CJ7, E14, RW4 (a parental line of NMHCIIA^−/A^− mES cells), NMHCIIA^−/A^−, and NMHCIIB^−/B^− mES cells. Cells were maintained on either mitotically inactivated mouse embryonic fibroblasts or gelatin (Sigma)-coated dishes with the standard medium in the presence of leukemia inhibitory factor (LIF) at 1400 U/ml (Millipore). For the microscopic or immunofluorescent analysis, cells were plated at approximately 5000-10000 cells/cm^2. For the defined culture, cells were plated at approximately 10000 cells/cm^2 on plates freshly coated with PDL or PDL-precoated plates (BD Bioscience) in mTeSR supplemented with 2.5 to 5 μM of blebbistatin or Y-27632. Medium was changed every day or every other day depending on confluency. Cells were passaged by using trypsin-EDTA every 3 to 4 days.

hiPS cells [3] = experiment: Cell viability assay under adherence conditions (trypan blue live cell counting); type: cell-based, human; conditions: 10 μM, 24 h after plating 1×10^5 cells/well, n=3
Experimental: hES or hiPS cells were plated at 1×10^5 cells/well on 12-well plates coated with PDL or Matrigel in mTeSR in the presence or absence of blebbistatin or Y-27632 at various concentrations in triplicates. DMSO (solvent for blebbistatin) was also added in the control condition and found to have no effect on viability. For mES cells, cells were plated under the same condition except for the use of gelatin coating and mES medium. After 24 h, cells were harvested, trypsinized to single cells, and counted by hemocytometer. Cell counting was performed independently by two researchers to confirm the consistency. The same samples were used for TUNEL assay immediately after taking a small fraction of the sample for cell counting.

[4] = system: hES or hiPS cells grown under the defined condition; experiment: Teratoma formation in SCID/beige mice; type: in vivo, mouse; conditions: cells grown under blebbistatin/PDL for 20 passages, about 2×10^6 cells subcutaneously, 4 to 8 weeks
From the text: All animal-related protocols were approved by Institutional Animal Care and Use Committee. Cells (approximately 2×10^6 cells) grown under defined conditions for multiple passages with occasional freezing and thawing were subcutaneously injected into severe combined immunodeficient (SCID)/beige mice (Charles River Laboratories). After 4 to 8 weeks, the developed teratomas were excised, fixed in 4% paraformaldehyde or 10% formalin, and subjected to histological section preparations.

cleaved caspase-3 = experiment: Western analysis of cleaved caspase-3; type: cell-based, human; conditions: hiPS cells under adherence condition
Experimental: Total protein was extracted with RIPA buffer (20 mM Tris-HCl, pH 7.5, 150 mM NaCl, 1 mM Na2EDTA, 1 mM EGTA, 1% NP-40, 1% sodium deoxycholate, 2.5 mM sodium pyrophosphate, 1 mM β-glycerophosphate, 1 mM Na3VO4, and protease inhibitors). Protein concentrations were determined by BCA Protein Assay kit (Pierce). An equal amount (20 μg) of protein was loaded in each lane, separated by 10% SDS/PAGE, and transferred onto a PVDF membrane (BioRad). The membrane was blocked in Odyssey blocking buffer (LI-COR Biotechnology), and subsequently incubated with primary antibodies against Oct3 (Santa Cruz Biotechnology), Nanog (Millipore), myosin IIA (Covance), myosin IIB (Covance), cleaved caspase-3 (Cell Signaling), or β-actin (Sigma) at 4° C. overnight followed by incubation with peroxidase-conjugated goat anti-mouse IgG or goat anti-rabbit IgG (Jackson ImmunoResearch, Inc.), and developed with ECL reagent (GE Healthcare).

hiPS cells [5] = experiment: Attachment of hiPS cells on poly-D-lysine (PDL) in mTeSR; type: cell-based, human; conditions: no signs of defects in cell-cell adhesions
From the text: Myosin II controls cell-matrix contacts and detachment-induced apoptosis in hiPS and hiES cells. […] Similar results were obtained from the experiments using hES cells.

Cc1ccc2c(c1)C(=O)C1(O)CCN(c3ccccc3)C1=N2 (stereo not shown) [blebbistatin, 1-Phenyl-1,2,3,4-tetrahydro-4-hydroxypyrrolo[2,3-b]-7-methylquinolin-4-one]
Effect on survival in suspension culture (hiPS cells [1]; hPS cells in suspension, various concentrations): higher viability than Y-27632 | Number of live cells (hiPS cells [1]; hiPS cells in suspension culture, 10 μM, n=3): 1.6±0.12×10^5 cells | Growth and cell survival rates compared with Y27632 (hiPS cells [2]): higher growth and cell survival rates than the cells treated with Y27632 | Cytokinesis defects such as multinucleated cells (hiPS cells [2]; 2.5 μM, over 15 passages): without any signs of cytokinesis defects | Minimum concentration sufficient for supporting cell-matrix interactions but not affecting cell-cell adhesions (hiPS cells [2]; PDL-coating, mTeSR): 2.5 µM | Number of viable cells (hiPS cells [3]; hiPS cells on Matrigel coating): 8.6±0.6×10^4 cells | Number of viable cells (hiPS cells [3]; hiPS cells on PDL): 7.9±0.6×10^4 cells | Teratoma histology [4]: contain all three germ-layer derived differentiated tissues | Cleaved caspase-3 level by Western analysis (cleaved caspase-3): decreased | Minimum concentration supporting attachment of hiPS cells on PDL (hiPS cells [5]): 2 µM
